{"source": "patent US20080269121A1", "about": "“Methods and Compositions Involving A1c Subunit of L-Type Calcium Channels in Smooth Muscle Cells” (The Board of Regents of the University of Texas System, priority 2005, published 2008)", "key": {"[1]": {"system": "α1C subunit of L-type Ca^2+ channels", "experiment": "α1C protein expression (Western immunoblotting)", "assay_type": "cell-based, human", "excerpt": "Primary cultures of HCCSMC: Human tissue was obtained from the descending and sigmoid colons with approval of the University of Texas Medical Branch Institutional Review Board from disease free margins of resected segments from patients undergoing surgery for colon cancer. The circular muscle layer was separated from the taenia coli and lamina propria with a tissue slicer. The circular muscle layer was collected in ice-cold HEPES buffer (in mM: 120 NaCl, 2.6 KH2S04, 4 KCl, 2 CaCl2, 0.6 MgCl2, 25 HEPES, 14 glucose and 2.1% essential amino acid mixture, pH 7.4). Two successive digestions with papain and collagenase, as described previously by Shi and Sarna, were used to disperse smooth muscle cells. The cells were cultured in RPMI 1640 (Gibco/Invitrogen, Carlsbad, Calif.) supplemented with 10% fetal bovine serum in the presence of 100 units/mL of penicillin G, 100 μg/mL of streptomycin sulfate and 0.25 μg/mL of amphoteracin B. The culture medium was changed every three days. Cells in passages 3 to 5 were used in all experiments. All cells were cultured in serum-free medium for at least 15 h prior to experiments to eliminate the possible effects of growth factors. […] The cultures of colonic smooth muscle cells retain their contractile phenotype. Each experiment used cells or muscle strips from at least three different subjects.\nWestern immunoblotting. Each lane is loaded with 10 μg protein and size-separated on a 10% SDS polyacrylamide gel. After blotting, the nitrocellulose membranes are blocked with 10% non-fat dried milk at 4° C. overnight. The blots are incubated with appropriate dilution of the antibody at 4° C. overnight and appropriate dilution of designated secondary antibody at room temperature for 1 h. β-actin is used as internal control."}, "HCCSMC": {"system": "HCCSMC", "experiment": "Cytosolic free Ca^2+ measurement (fura-2 AM) in HCCSMC", "assay_type": "cell-based, human", "details": "treatment for 24 h, by", "method": "Cytosolic free Ca^2+ measurement: Cytosolic calcium level ([Ca^2+]i) was measured in a wide-field imaging system at the UTMB core Optical Imaging Laboratory using the Ca^2+-sensitive fluorescent dye fura 2-AM (Molecular Probes, Eugene, Oreg.). HCCSMC cultured on cover slips were incubated with 1 μM fura 2-AM for 45 min at 37° C. in a modified HEPES buffer (pH 7.4) containing (in mM): 10 HEPES, 125 NaCl, 5 KCl, 1 CaCl2, 0.5 MgSO4, 5 glucose. Cover slips with cells were washed with fresh medium and mounted on the stage of a Nikon TE200 inverted microscope (Nikon Instruments, Lewisville, Tex.) equipped with a CoolSNAP HQ cooled-CCD monochrome digital camera (Roper Scientific, Tucson Ariz.). Cells were examined under a super-fluor 20×0.75 NA objective during exposure to alternating 340 and 380 nm excitation light (DG4 illuminator system, Sutter Instrument, Novato, Calif.), and the intensity of light emission at 510 nm was measured. The light intensities and their ratio, F340/F380, which reflects changes in Ca^2+ concentration, were followed simultaneously in several single cells in the field. The acquisition process was controlled by the Metafluor image acquisition software (Universal Imaging Corp. Downingtown, Pa.)."}, "p65 subunit": {"system": "p65 subunit", "experiment": "Nuclear abundance and binding of NF-κB p65 in HCCSMC", "assay_type": "cell-based, human", "method": "Cytoplasmic and nuclear protein, and RNA extraction: Cytoplasmic and nuclear proteins were prepared as described earlier by Shi et al. Briefly, the cells were washed twice with phosphate-buffered saline solution and then with buffer A (in mM: 10 HEPES, 1.5 MgCl2, 10 KCl, 0.5 dithiothreitol, 0.5 phenylmethylsulfrenyl fluoride [PMSF]; 10 ng/mL leupeptin, and 10 ng/mL aprotinin). The cells were resuspended in 25 μL of buffer A containing 0.25% NP-40 and incubated at 4° C. for 10 minutes. After centrifugation at 12,000 g for 10 minutes, the supernatant was collected as cytoplasmic extract. The nuclear pellet was resuspended in 20 μL of buffer C (in mM: 20 HEPES, […], 1.5 MgCl2, 0.2 ethylenediaimetetraacetic acid (EDTA), 0.5 DTT, 0.5 PMSF; 24% glycerol, 10 ng/mL leupeptin, and 10 ng/mL aprotinin) and incubated on ice with frequent vortexing for 15 minutes. The samples were centrifuged at 14,000 g for 10 minutes, and the supernatant (nuclear extract) was transferred to a fresh tube with 5 volumes of buffer D (in mM: 20 HEPES, 0.2 EDTA, 50 KCl, 0.5 DTT, 0.5 PMSF; 20% glycerol, 10 ng/mL leupeptin, and 10 ng/mL aprotinin). The protein concentration was determined by using the Bio-Rad assay kit (Bio-Rad Laboratories, Hercules, Calif.).\nElectrophoretic mobility shift assay. […]"}, "[2]": {"system": "TNBS (trinitrobenzene sulfonic, acid)-induced colitis", "details": "systemic bolus injections, mouse; cited from earlier work"}}, "data": [{"substance": "vasoactive intestinal polypeptide [VIP]", "values": [{"measurement": "increase of α1C protein", "setting": "[1]; adult human colonic circular smooth muscle cells", "value": "about 100%"}, {"measurement": "effect on TNFα suppression of α1C protein", "setting": "[1]; muscle strip tissue, FIG. 14 top", "value": "minimized"}, {"measurement": "Ca^2+ influx", "setting": "HCCSMC", "value": "enhanced Ca^2+ influx"}, {"measurement": "abundance of p65 in the nucleus, VIP and TNFα versus TNFα alone", "setting": "p65 subunit", "value": "did not seem to be different"}, {"measurement": "MPO (myeloperoxidase) activity", "setting": "[2]", "value": "did not completely suppress"}, {"measurement": "TNBS-induced diarrhea", "setting": "[2]", "value": "abrogated TNBS-induced diarrhea"}, {"measurement": "macroscopic and microscopic inflammation", "setting": "[2]", "value": "reduced macroscopic and microscopic inflammation"}]}]}
